#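 Assay format: 96-well plates, 48-hour exposure. At the GI50, growth is halved. Definition used: TGI = concentration required for complete inhibition of growth.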
# Tests used:
# Test in all cases: NCI anticancer screen, dose series, 48 h
# [1] = tested on: HOP-62 NSCLC
# [2] = tested on: MALME-3M melanoma
# [3] = tested on: RPMI-8226 leukemia
# [4] = tested on: HCT-116 colon
# [5] = tested on: OVCAR-8 ovarian
# [6] = tested on: SF-295 CNS
# [7] = tested on: UO-31 renal
# [8] = tested on: SNB-19 CNS
# [9] = tested on: SK-OV-3 ovarian
# [10] = tested on: SN12C renal
# [11] = tested on: ACHN renal
# [12] = tested on: UACC-62 melanoma
# [13] = tested on: T-47D breast
# [14] = tested on: NCI/ADR-RES ovarian
# [15] = tested on: CCRF-CEM leukemia
# [16] = tested on: SK-MEL-2 melanoma
# [17] = tested on: MOLT-4 leukemia
# [18] = tested on: HCC-2998 colon
# [19] = tested on: SR leukemia
# [20] = tested on: SK-MEL-5 melanoma
# [21] = tested on: MCF7 breast
# [22] = tested on: A498 renal
# [23] = tested on: NCI-H522 lung
# [24] = tested on: A549 NSCLC
# [25] = tested on: CAKI-1 renal
# [26] = tested on: PC-3 prostate
# [27] = tested on: KM12 colon
# [28] = tested on: OVCAR-5 ovarian
# [29] = tested on: NCI-H226 lung
# [30] = tested on: SF-268 CNS
# [31] = tested on: U251 CNS
# [32] = tested on: COLO 205 colon
# [33] = tested on: TK-10 renal
# [34] = tested on: M14 melanoma
# [35] = tested on: OVCAR-4 ovarian
# [36] = tested on: NCI-H23 lung
# [37] = tested on: DU-145 prostate
# [38] = tested on: 786-0 renal
# [39] = tested on: HS 578T breast
# [40] = tested on: RXF 393 renal
# [41] = tested on: HCT-15 colon
# [42] = tested on: MDA-MB-435
# [43] = tested on: K-562 leukemia
# [44] = tested on: NCI-H460 lung
# [45] = tested on: SK-MEL-28 melanoma
# [46] = tested on: LOX IMVI melanoma
# [47] = tested on: OVCAR-3 ovarian
# [48] = tested on: IGROV1 ovarian
# [49] = tested on: HOP-92 NSCLC
# [50] = tested on: SNB-75 CNS
# [51] = tested on: SF-539 CNS
# [52] = tested on: SW-620 colon
# [53] = tested on: MDA-MB-231 breast
# [54] = tested on: HT29 colon
# [55] = tested on: EKVX NSCLC
# [56] = tested on: UACC-257 melanoma
# [57] = tested on: HL-60(TB) leukemia
compound,measurement,setting,value
CN(Cc1ccccc1)c1ncnc2ccc(Br)cc12,GI50,[1],12.6 µM
same,TGI,[1],25.9 µM
same,GI50,[2],10.9 µM
same,TGI,[2],23.2 µM
same,GI50,[3],3260 nM
same,TGI,[3],13.1 µM
same,GI50,[4],11.1 µM
same,TGI,[4],23.5 µM
same,GI50,[5],26.1 µM
same,TGI,[5],95.5 µM
same,GI50,[6],13.5 µM
same,TGI,[6],28.1 µM
same,GI50,[7],13.3 µM
same,TGI,[7],49.5 µM
same,GI50,[8],16.8 µM
same,TGI,[8],41.9 µM
same,GI50,[9],14.2 µM
same,TGI,[9],30.3 µM
same,GI50,[10],15.1 µM
same,TGI,[10],29.6 µM
same,GI50,[11],12.6 µM
same,TGI,[11],28.1 µM
same,GI50,[12],13.1 µM
same,TGI,[12],27.1 µM
same,GI50,[13],22 µM
same,TGI,[13],> 100 µM
same,GI50,[14],8.94 µM
same,TGI,[14],33.3 µM
same,GI50,[15],13.6 µM
same,TGI,[15],38.7 µM
same,GI50,[16],35.7 µM
same,TGI,[16],> 100 µM
same,GI50,[17],5.77 µM
same,TGI,[17],28.8 µM
same,GI50,[18],11.9 µM
same,TGI,[18],26.3 µM
same,GI50,[19],16.5 µM
same,TGI,[19],38 µM
same,GI50,[20],11.8 µM
same,TGI,[20],24.1 µM
same,GI50,[21],26.4 µM
same,TGI,[21],> 100 µM
same,GI50,[22],4.8 µM
same,TGI,[22],17.1 µM
same,GI50,[23],23.1 µM
same,TGI,[23],> 100000 nM
same,GI50,[24],17.5 µM
same,TGI,[24],45.8 µM
same,GI50,[25],4.37 µM
same,TGI,[25],17.6 µM
same,GI50,[26],11.7 µM
same,TGI,[26],33.4 µM
same,GI50,[27],11.9 µM
same,TGI,[27],25.5 µM
same,GI50,[28],15.3 µM
same,TGI,[28],31.3 µM
same,GI50,[29],13.8 µM
same,TGI,[29],39.1 µM
same,GI50,[30],10.2 µM
same,TGI,[30],27.5 µM
same,GI50,[31],11.9 µM
same,TGI,[31],24.6 µM
same,GI50,[32],16.2 µM
same,TGI,[32],38.2 µM
same,GI50,[33],5.68 µM
same,TGI,[33],19.8 µM
same,GI50,[34],12.9 µM
same,TGI,[34],25.7 µM
same,GI50,[35],12.8 µM
same,TGI,[35],36.8 µM
same,GI50,[36],11.3 µM
same,TGI,[36],28.9 µM
same,GI50,[37],14.6 µM
same,TGI,[37],28.7 µM
same,GI50,[38],13.5 µM
same,TGI,[38],26.3 µM
same,GI50,[39],11.5 µM
same,TGI,[39],27.8 µM
same,GI50,[40],13.7 µM
same,TGI,[40],31 µM
same,GI50,[41],14.1 µM
same,TGI,[41],32 µM
same,GI50,[42],4.67 µM
same,TGI,[42],16.6 µM
same,GI50,[43],4400 nM
same,TGI,[43],18.6 µM
same,GI50,[44],10.3 µM
same,TGI,[44],26 µM
same,GI50,[45],15.6 µM
same,TGI,[45],36.1 µM
same,GI50,[46],14.7 µM
same,TGI,[46],29.2 µM
same,GI50,[47],7.45 µM
same,TGI,[47],20.8 µM
same,GI50,[48],8.17 µM
same,TGI,[48],> 100 µM
same,GI50,[49],7.16 µM
same,TGI,[49],25.8 µM
O=C(Nc1ccc(-n2ccc3c(NC(=O)c4ccccc4)ncnc32)cc1)Nc1ccc(Cl)c(C(F)(F)F)c1,GI50,[1],2.16 µM
same,TGI,[1],4.45 µM
same,GI50,[2],1.94 µM
same,TGI,[2],4.54 µM
same,GI50,[3],1030 nM
same,TGI,[3],2.84 µM
same,GI50,[4],1.47 µM
same,TGI,[4],2.96 µM
same,GI50,[6],1.41 µM
same,TGI,[6],3.38 µM
same,GI50,[7],2.04 µM
same,TGI,[7],4.73 µM
same,GI50,[50],1670 nM
same,TGI,[50],8.08 µM
same,GI50,[8],2.43 µM
same,TGI,[8],7.18 µM
same,GI50,[51],654 nM
same,TGI,[51],3.9 µM
same,GI50,[10],2.43 µM
same,TGI,[10],6.58 µM
same,GI50,[11],1.58 µM
same,TGI,[11],3.62 µM
same,GI50,[12],1.9 µM
same,TGI,[12],4.59 µM
same,GI50,[13],2.27 µM
same,TGI,[13],5.73 µM
same,GI50,[14],2.41 µM
same,TGI,[14],8.55 µM
same,GI50,[15],0.806 µM
same,TGI,[15],3.73 µM
same,GI50,[16],2.44 µM
same,TGI,[16],5.66 µM
same,GI50,[17],1.87 µM
same,TGI,[17],4.82 µM
same,GI50,[18],2.47 µM
same,TGI,[18],6.54 µM
same,GI50,[19],1.74 µM
same,TGI,[19],4.76 µM
same,GI50,[20],2.43 µM
same,TGI,[20],11.3 µM
same,GI50,[21],1.64 µM
same,TGI,[21],3.24 µM
same,GI50,[22],1.51 µM
same,TGI,[22],3.65 µM
same,GI50,[52],2170 nM
same,TGI,[52],4.96 µM
same,GI50,[23],1.07 µM
same,TGI,[23],2890 nM
same,GI50,[24],1.67 µM
same,TGI,[24],3.58 µM
same,GI50,[53],1550 nM
same,TGI,[53],3.66 µM
same,GI50,[25],1.69 µM
same,TGI,[25],3.81 µM
same,GI50,[26],1.25 µM
same,TGI,[26],3.01 µM
same,GI50,[27],1.62 µM
same,TGI,[27],3.79 µM
same,GI50,[28],1.66 µM
same,TGI,[28],3.89 µM
same,GI50,[29],2.39 µM
same,TGI,[29],7.06 µM
same,GI50,[30],2.02 µM
same,TGI,[30],4.99 µM
same,GI50,[54],1520 nM
same,TGI,[54],3.14 µM
same,GI50,[55],1970 nM
same,TGI,[55],4.99 µM
same,GI50,[31],1.2 µM
same,TGI,[31],2.55 µM
same,GI50,[32],2.63 µM
same,TGI,[32],5.86 µM
same,GI50,[33],1.8 µM
same,TGI,[33],4.95 µM
same,GI50,[34],1.66 µM
same,TGI,[34],3.64 µM
same,GI50,[56],2760 nM
same,TGI,[56],6.39 µM
same,GI50,[35],1.57 µM
same,TGI,[35],3.48 µM
same,GI50,[36],2.19 µM
same,TGI,[36],5.28 µM
same,GI50,[37],2.12 µM
same,TGI,[37],4.61 µM
same,GI50,[39],1.27 µM
same,TGI,[39],4.61 µM
same,GI50,[40],1.5 µM
same,TGI,[40],3.28 µM
same,GI50,[41],0.765 µM
same,TGI,[41],2.19 µM
same,GI50,[42],1.85 µM
same,TGI,[42],4.43 µM
same,GI50,[43],1450 nM
same,TGI,[43],5.04 µM
same,GI50,[44],1.35 µM
same,TGI,[44],3.06 µM
same,GI50,[57],2920 nM
same,TGI,[57],6.93 µM
same,GI50,[45],1.93 µM
same,TGI,[45],4.46 µM
same,GI50,[46],2 µM
same,TGI,[46],6.77 µM
same,GI50,[47],1.72 µM
same,TGI,[47],3.22 µM
same,GI50,[48],1.77 µM
same,TGI,[48],3.91 µM
same,GI50,[49],1.41 µM
same,TGI,[49],4 µM

# Reference: PubChem BioAssay (NCI)
